Test results reported in article PMC10120512, “Benzenesulfonamide derivatives as Vibrio cholerae carbonic anhydrases inhibitors: a computational-aided insight in the structural rigidity-activity relationships” (Journal of Enzyme Inhibition and Medicinal Chemistry, 2023).
pKi: −log10 of the molar value.

Legend:
[1] = tested on: VchαCA; experiment: biochemical; assay type: biochemical; details: for SI [ KI hCA I/KI VchαCA ]: selectivity index hCA I over VchαCA; for SI [ KI hCA II/KI VchαCA ]: selectivity index hCA II over VchαCA
[2] = molecular target: VchαCA (Vibrio cholerae, UniProt Q9KMP6); experiment: biochemical; assay type: biochemical
[3] = molecular target: VchγCA (Vibrio cholerae, UniProt Q9KVT1); experiment: biochemical
[4] = molecular target: VchβCA (Vibrio cholerae, UniProt A0A086SLX8); experiment: biochemical
[5] = tested on: clinical isolates of V. cholerae (SI-Vc22, SI-Vc71, SI-Vc912); experiment: Direct antibacterial activity, agar diffusion method; assay type: cell-based; details: for inhibition zone diameter: all the isolates, data not shown; for growth inhibition against at least one of the clinical isolates: 2 μL spot, 37 °C, 24 h; for all read-outs here: test concentration or dose not given here

Sequence of VchαCA (Vibrio cholerae, UniProt Q9KMP6) (Q9KMP6 entry or part of it): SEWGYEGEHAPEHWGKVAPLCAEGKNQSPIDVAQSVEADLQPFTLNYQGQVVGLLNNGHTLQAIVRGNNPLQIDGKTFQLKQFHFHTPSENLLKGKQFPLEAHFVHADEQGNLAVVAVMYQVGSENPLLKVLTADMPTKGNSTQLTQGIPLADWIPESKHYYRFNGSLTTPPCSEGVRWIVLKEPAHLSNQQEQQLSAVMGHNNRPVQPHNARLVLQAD
Sequence of VchβCA (A0A086SLX8 entry or part of it): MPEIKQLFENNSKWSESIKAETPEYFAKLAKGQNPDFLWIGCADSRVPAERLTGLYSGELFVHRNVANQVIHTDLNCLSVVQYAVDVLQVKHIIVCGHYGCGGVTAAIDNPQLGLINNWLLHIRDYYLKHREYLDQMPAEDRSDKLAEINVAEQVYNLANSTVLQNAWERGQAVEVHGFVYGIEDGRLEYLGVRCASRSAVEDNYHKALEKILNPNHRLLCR
Sequence of VchγCA (Q9KVT1 1-184): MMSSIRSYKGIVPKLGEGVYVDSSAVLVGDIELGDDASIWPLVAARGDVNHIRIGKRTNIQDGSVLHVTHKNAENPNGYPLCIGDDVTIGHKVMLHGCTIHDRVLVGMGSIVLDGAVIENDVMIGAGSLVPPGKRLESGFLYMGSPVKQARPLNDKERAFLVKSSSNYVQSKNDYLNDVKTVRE

For `CCCCNCCNc1cccc(S(N)(=O)=O)c1` [15a], the “SI [ KI hCA I/KI VchαCA ]” value [1] was 1.9, the “SI [ KI hCA II/KI VchαCA ]” value [1] was 0.5 and the pKi [2] was 7.10. It also gave a pKi [3] of 4.16 and a pKi [4] of 4.25.

`Cc1ccc(NCC(=O)Nc2ccc(S(N)(=O)=O)cc2)cc1` [2b] was tested, and the “SI [ KI hCA I/KI VchαCA ]” value [1] was 0.2, the “SI [ KI hCA II/KI VchαCA ]” value [1] was 1.9 and the pKi [2] was 7.37. For the same molecule, the pKi [3] was 4.08 and the pKi [4] was 4.01.

In the case of `CCCCNCCNc1ccc(S(N)(=O)=O)cc1` [9a], the inhibition zone diameter [5] was 3–5 mm, the “SI [ KI hCA I/KI VchαCA ]” value [1] was 6.8 and the “SI [ KI hCA II/KI VchαCA ]” value [1] was 1.0. It also gave a pKi [2] of 7.10 and a pKi [4] of 3.94.

For `NS(=O)(=O)c1ccc(N2CCN(c3ccccc3)C2=O)cc1` [1c], the “SI [ KI hCA I/KI VchαCA ]” value [1] was 7.7, the “SI [ KI hCA II/KI VchαCA ]” value [1] was 0.6 and the pKi [2] was 8.15. It also gave a pKi [3] of 5.30 and a pKi [4] of 3.87.

With `CC(C)N1CCN(c2ccc(S(N)(=O)=O)cc2)C1=O` [10c] the “SI [ KI hCA I/KI VchαCA ]” value [1] was 0.9, the “SI [ KI hCA II/KI VchαCA ]” value [1] was 0.3 and the pKi [2] was 8.01. For the same molecule, the pKi [3] was 4.19 and the pKi [4] was 3.95.

In the case of `Cc1cccc(N2CCN(c3ccc(S(N)(=O)=O)cc3)C2=O)n1` [7c], the “SI [ KI hCA I/KI VchαCA ]” value [1] was 5.0, the “SI [ KI hCA II/KI VchαCA ]” value [1] was 0.7 and the pKi [2] was 7.96. It also gave a pKi [3] of 4.10 and a pKi [4] of 3.91.

`NS(=O)(=O)c1ccc(N2CCN(c3ccccc3Br)C2=O)cc1` [5c] was tested, and the “SI [ KI hCA I/KI VchαCA ]” value [1] was 0.1, the “SI [ KI hCA II/KI VchαCA ]” value [1] was 0.1 and the pKi [2] was 7.33. It also gave a pKi [3] of 4.14.

`NS(=O)(=O)c1ccc(NCCNc2ccccc2Br)cc1` [5a] was tested, and the “SI [ KI hCA I/KI VchαCA ]” value [1] was 14.7, the “SI [ KI hCA II/KI VchαCA ]” value [1] was 14.2 and the pKi [2] was 7.19. For the same molecule, the pKi [4] was 4.05.

In the case of `NS(=O)(=O)c1ccc(NC(=O)CNCc2ccccc2)cc1` [8b], the pKi [2] was 7.21 and the pKi [4] was 4.27.

`Cc1ccc(NCCNc2cccc(S(N)(=O)=O)c2)cc1` [12a] showed a pKi [2] of 7.36, a pKi [3] of 4.10 and a pKi [4] of 3.76.

With `CCCCN1CCN(c2ccc(S(N)(=O)=O)cc2)C1=O` [9c] the “growth inhibition against at least one of the clinical isolates” value (shortened to “growth inhibition against at least one”) [5] was “moderate growth inhibition”, the inhibition zone diameter [5] was 3–5 mm and the “SI, selectivity with respect to human isoenzymes” value ([1]; VchαCA versus human isoenzymes (abstract)) was no less than 90. For the same molecule, the “SI [ KI hCA I/KI VchαCA ]” value [1] was 128.4, the “SI [ KI hCA II/KI VchαCA ]” value [1] was 90.0 and the pKi [2] was 8.33. It also gave a pKi [3] of 4.26 and a pKi [4] of 3.95.

For `NS(=O)(=O)c1cccc(NC(=O)CNc2ccccc2)c1` [11b], the “growth inhibition against at least one” value [5] was “moderate growth inhibition”, the “SI [ KI hCA I/KI VchαCA ]” value [1] was 7.5 and the “SI [ KI hCA II/KI VchαCA ]” value [1] was 0.6. For the same molecule, the pKi [2] was 7.23 and the pKi [4] was 3.88.

For `NS(=O)(=O)c1ccc(N2CCN(Cc3ccccc3)C2=O)cc1` [8c], the “SI [ KI hCA I/KI VchαCA ]” value [1] was 3.1, the “SI [ KI hCA II/KI VchαCA ]” value [1] was 1.2 and the pKi [2] was 8.59. It also gave a pKi [3] of 5.09 and a pKi [4] of 3.90.

For `NS(=O)(=O)c1ccc(NCCNCc2ccccc2)cc1` [8a], the “SI [ KI hCA I/KI VchαCA ]” value [1] was 7.4, the “SI [ KI hCA II/KI VchαCA ]” value [1] was 1.4 and the pKi [2] was 7.64. The pKi [3] was 4.28 and the pKi [4] was 4.91.

With `NS(=O)(=O)c1ccc(NCCNc2ccc(Cl)cc2)cc1` [3a] the “SI [ KI hCA I/KI VchαCA ]” value [1] was 1.4, the “SI [ KI hCA II/KI VchαCA ]” value [1] was 1.7 and the pKi [2] was 7.56. The pKi [4] was 4.27.

Work on `NS(=O)(=O)c1ccc(NC(=O)CNc2ccccc2Br)cc1` [5b] yielded a pKi [2] of 7.21, a pKi [3] of 4.06 and a pKi [4] of 4.32.

`CCCCN1CCN(c2cccc(S(N)(=O)=O)c2)C1=O` [15c] was tested, and the “SI [ KI hCA I/KI VchαCA ]” value [1] was 0.8, the “SI [ KI hCA II/KI VchαCA ]” value [1] was 0.2 and the pKi [2] was 7.33. It also gave a pKi [3] of 5.10 and a pKi [4] of 3.91.

In the case of `NS(=O)(=O)c1ccc(NC(=O)CNc2ccccc2F)cc1` [6b], the “SI [ KI hCA I/KI VchαCA ]” value [1] was 0.2, the “SI [ KI hCA II/KI VchαCA ]” value [1] was 0.1 and the pKi [2] was 7.10. The pKi [3] was 4.03 and the pKi [4] was 4.29.

In the case of `NS(=O)(=O)c1ccc(N2CCN(c3ccc(I)cc3)C2=O)cc1` [4c], the inhibition zone diameter [5] was 3–5 mm, the “SI [ KI hCA I/KI VchαCA ]” value [1] was 7.1 and the “SI [ KI hCA II/KI VchαCA ]” value [1] was 1.0. For the same molecule, the pKi [2] was 7.89, the pKi [3] was 4.14 and the pKi [4] was 3.94.

In the case of `NS(=O)(=O)c1ccc(NC(=O)CNc2ccc(Cl)cc2)cc1` [3b], the “growth inhibition against at least one” value [5] was “moderate growth inhibition”, the “SI [ KI hCA I/KI VchαCA ]” value [1] was 0.3 and the “SI [ KI hCA II/KI VchαCA ]” value [1] was 0.1. For the same molecule, the pKi [2] was 7.18, the pKi [3] was 4.06 and the pKi [4] was 3.93.

For `NS(=O)(=O)c1ccc(NC(=O)CNc2ccc(I)cc2)cc1` [4b], the pKi [2] was 7.64, the pKi [3] was 4.14 and the pKi [4] was 3.80.

For `CCCCNCC(=O)Nc1cccc(S(N)(=O)=O)c1` [15b], the “SI [ KI hCA I/KI VchαCA ]” value [1] was 1.3, the “SI [ KI hCA II/KI VchαCA ]” value [1] was 0.6 and the pKi [2] was 7.18. For the same molecule, the pKi [3] was 4.13 and the pKi [4] was 3.93.
